From patent publication US12661352B2, “Combination therapy with CLK/DYRK inhibitors and BCL2 inhibitors to treat leukemia” (Memorial Sloan-Kettering Cancer Center, priority 2023, dated 2026)

Columns and labels:
[1] = tested on: venetoclax-resistant MOLM-13 cell lines; assay: Drug treatment IC50 / cell viability (CellTiter Glo) and synergy, venetoclax-resistant MOLM-13 cell lines; format: cell-based; conditions: Homo sapiens, cell lines developed by continuous exposure to venetoclax for 3 weeks
Protocol: (§1) Cell lines were plated in 96 well plates and exposed to the indicated compounds at various concentration ranges with a minimum of three technical replicates per concentration per cell line. Cell viability was measured with the CellTiter Glo reagent (Promega) as per manufacturer's instructions. Absolute viability values were converted to percentage viability versus DMSO control treatment, and then non-linear fit of log (inhibitor) versus response (three parameters) was performed in GraphPad Prism v7.0 to obtain an IC50 values. Two-dimensional heatmaps of Synergy Scores from Bliss synergy models were generated based on Demidenko et al., 2019^83.
The efficacy of SM09419 across a spectrum of human AML cell lines was tested. […] Three independent venetoclax-resistant MOLM-13 cell lines following continuous exposure to venetoclax for 3 weeks were developed. […] These findings were further extended to patient-derived xenograft (PDX) models of AML from patients with de novo resistance to venetoclax combination regimens (5-azacytidine or low-dose cytarabine) (FIGS. 6C-6D). Following xenotransplantation from two individual venetoclax-resistant patients into NSGS mice, disease engraftment with >10% human hCD45^+ hCD34^+ hCD38^+ cells was detected and mice were exposed to SM09419 (25 mg/kg) or vehicle administered orally and daily for 3 weeks.

[2] = tested on: MOLM-13 parental cells; assay: Drug treatment IC50 / cell viability (CellTiter Glo) and synergy, MOLM-13 parental cells; format: cell-based; conditions: Homo sapiens
Protocol: as §1

- IC50 [1]: > 99 nM
Compound: CC1(C)CCC(CN2CCN(c3ccc(C(=O)NS(=O)(=O)c4ccc(NCC5CCOCC5)c([N+](=O)[O-])c4)c(Oc4cnc5[nH]ccc5c4)c3)CC2)=C(c2ccc(Cl)cc2)C1 [venetoclax]
- IC50 [2]: ~15 nM
